Laboratory results reported in patent US10869871B2, “Compositions and methods of modulating short-chain dehydrogenase activity” (CASE WESTERN RESERVE UNIVERSITY, priority 2013, dated 2020).

Tests used:
[1] = test system: PGE2 in colon, bone marrow, liver, lung; assay: PGE2 in mouse tissues after IP injection; assay type: in vivo
[2] = test system: 15-PGDH-luciferase fusion reporter in V9m, LS174T and V503 colon cancer cell lines; assay: 15-PGDH-luciferase fusion reporter induction in colon cancer cell lines; assay type: cell-based; conditions: for luciferase activity of 15-PGDH luciferase fusion cells: V9m, LS174T, V503, relative to DMSO
[3] = test system: A549 cells; assay: PGE2 levels in medium of IL1-beta stimulated A549 cells; assay type: cell-based
[4] = test system: cell culture; assay: Toxicity: concentration needed to decrease cell numbers in a cell culture assay; assay type: cell-based
Description: Time to inhibition refers to the time needed to inhibit the generation of NADH by 15-PGDH from the moment with drug is added into the reaction mix. Delta Tm refers to the shift in melting temperature of recombinant 15-PGDH in the presence of drug (with cofactor NADH also present). Concentration of Full Cell Line Reporter Induction refers to the concentration of drug that needs to be added to reporter cell line to achieve maximal induction of the 15-PGDH-luciferase gene fusion reporter cassette, as measured by luciferase assays. Hepatocyte stability refers to the half-life of compound in the presence of hepatocytes in culture. Toxicity refers to the concentration of compound needed to decrease cell numbers in a cell culture assay.

[5] = test system: 15-PGDH protein; assay: Western blot of 15-PGDH protein levels in treated cell lines; assay type: cell-based; conditions: […] compound for 48 hours
[6] = biological target: T1, recombinant 15-PGDH (Homo sapiens (Human), UniProt P15428); assay: Thermal melt shift of recombinant 15-PGDH protein (SYPRO Orange); assay type: binding
[7] = test system: bone marrow; assay: Homing of CFSE labeled bone marrow cells to marrow of irradiated recipient mice; assay type: in vivo, mouse; conditions: for effect on SW033291 induced increase of homing: co-administered with SW033291 10 mg/kg IP
Description: Drugs are administered following radiation, following the transplant, and again at 8 hours after the transplant.

[8] = Chemical stability in aqueous solutions; assay type: physicochemical; conditions: over broad pH range
[9] = Stability when incubated with liver extracts; assay type: in vitro ADME; conditions: incubated with mouse, rat and human liver extracts
[10] = Immediate toxicity after IP injection into mice; assay type: in vivo; conditions: injected IP into mice at 50 mg/kg body weight
[11] = test system: cell lines; assay: PGE2 production by cell lines; assay type: cell-based; conditions: read-out: EC50 for increase of PGE2 production by cell lines
[12] = test system: mouse bone marrow; assay: Hematopoietic colonies from wild-type mouse bone marrow treated ex vivo; assay type: cell-based; conditions: 1 μM ex vivo on ice for 2 hours
From the text: Treated marrow is again then plated into methylcellulose for counting of hematopoietic colonies.

[13] = biological target: T1, recombinant 15-PGDH; assay: Inhibition of enzymatic activity of recombinant 15-PGDH in an in vitro assay; assay type: biochemical; conditions: FIG. 97
[14] = test system: 15-PGDH-luciferase fusion protein reporter in Vaco-9M (V9M) cell line; assay: 15-PGDH-luciferase fusion reporter induction in Vaco-9M (V9M) cells; assay type: cell-based
Description: Some residual activity is seen for isomer B when added at 3.2 μM concentration. The small residual activity of isomer A may be due to possible 3% contamination with some residual isomer B.

T1 sequence (P15428 whole entry): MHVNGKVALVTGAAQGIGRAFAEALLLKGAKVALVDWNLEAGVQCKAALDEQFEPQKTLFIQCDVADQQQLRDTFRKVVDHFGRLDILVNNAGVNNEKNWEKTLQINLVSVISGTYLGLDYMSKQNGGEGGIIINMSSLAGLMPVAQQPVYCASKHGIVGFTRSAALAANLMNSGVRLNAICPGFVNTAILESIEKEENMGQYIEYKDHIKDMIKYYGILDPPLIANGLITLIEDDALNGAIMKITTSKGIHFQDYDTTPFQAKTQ

Compound: (+) SW209415
- peak PGE2 levels in lung, liver, colon and bone marrow ([1]; IP 0.5, 1.5 or 5 mg/kg, peak at 3 hours): approximately double those of vehicle control

Compound: CCCC[S+]([O-])c1sc2nc(-c3nccs3)ccc2c1N (stereo not shown) [SW206992]
- Concentration for Full Cell Line Reporter Induction ([2]; concentration to achieve maximal induction of 15-PGDH-luciferase reporter): >1 µM
- concentration at which maximal PGE2 effect attained ([3]; IL-1β 16 h, compound 8 h): 2.5 µM
- highest PGE2 level achieved in medium ([3]; IL-1β 16 h, compound 8 h): 2100 pg/mL
- Toxicity [4]: >7.5 µM

Compound: COc1ccc(OC)c(N(CC(=O)Nc2cccnc2)S(=O)(=O)c2ccccc2)c1 [SW054384]
- luciferase activity of 15-PGDH luciferase fusion cells [2]: increase luciferase activity
- levels of 15-PGDH protein (western blot) [5]: increase levels of 15-PGDH protein
- direct binding to 15-PGDH by melting temperature shift ([6]; 10 μM and 100 μM cofactor NAD or NADH): cannot be demonstrated to bind 15-PGDH

Compound: CCCC[S+]([O-])c1sc2nc(-c3nccs3)cc(-c3cnc(C)n3C)c2c1N (stereo not shown) [formula (XIII)]
- PGE2 levels in colon, lung, liver and bone marrow ([1]; IP dose of 10 mg/kg body weight): elevates PGE2 levels
- homing of hematopoietic stem cells following bone marrow transplantation ([7]; mouse, 10 mg/kg body weight): increases homing of hematopoietic stem cells
- chemical stability in aqueous solutions [8]: chemically stable in aqueous solutions over broad pH range
- chemical stability with liver extracts [9]: chemically stable when incubated with mouse, rat and human liver extracts
- immediate toxicity over 24 hours [10]: no immediate toxicity
- EC50 [11]: ~0.02 µM

Compound: O=C(c1ccc2nc(-c3ccccc3)c(-c3ccccc3)nc2c1)N1CCCCC1 [SW145753]
- luciferase activity of 15-PGDH luciferase fusion cells [2]: increase luciferase activity
- levels of 15-PGDH protein (western blot) [5]: increase levels of 15-PGDH protein
- PGE2 level in medium, reflecting 15-PGDH activity ([3]; IL1-beta 23 hours, compound added for last 5 hours): clear inhibition of 15-PGDH activity

Compound: CCCCC[C@H](O)/C=C/[C@H]1[C@H](O)CC(=O)[C@@H]1C/C=C\CCCC(=O)O [PGE2, prostaglandin E2]
- increase in number of bone marrow derived colonies relative to SW033291 [12]: lesser increase

Compound: CCCC[S+]([O-])c1sc2nc(-c3nccs3)cc(-c3cnc(C)n3C)c2c1N (stereo not shown) [SW209415, 2-(butylsulfinyl)-4-(1,2-dimethyl-1H-imidazol-5-yl)-6-(thiazol-2-yl)thieno[2,3-b]pyridin-3-amine]
- increase of homed cells in recipient mouse bone marrow ([7]; 10 mg/kg IP, FACS 16 hours post-transplant): approximately 2.5 fold

Compound: CCCCc1nn(-c2ccccc2C(F)(F)F)c(=O)n1Cc1ccc(-c2ccccc2S(=O)(=O)NC(=O)c2sccc2C)cc1 [L-161,982]
- effect on SW033291 induced increase of homing [7]: near completely blocked

Compound: CCCC[S+]([O-])c1sc2nc(-c3cccs3)ccc2c1N (stereo not shown) [SW206980]
- highest PGE2 level achieved in medium ([3]; IL-1β 16 h, compound 8 h): 2500 pg/mL
- Toxicity [4]: >7.5 µM

Compound: COc1ccc2c(c1)c(CC(=O)O)c(C)n2C(=O)c1ccc(Cl)cc1 [indomethacin]
- effect on SW033291 induced increase of homing [7]: near completely blocked

Compound: CCCC[S@](C)(O)c1sc2nc(-c3cccs3)cc(-c3ccccc3)c2c1N [SW033291 isomer B]
- IC50 lower than the parent racemic mixture [13]: 40%
- concentration giving full reporter activity [14]: 0.1 µM
- melting temperature of 15-PGDH ([6]; Differential Scanning Fluorimetry, DMSO control 50.5° C.): 68 °C

Compound: COc1ccc2cc(OCC3(C(=O)O)CN(C(=O)c4ccc(F)cc4)C3)ccc2c1 [PF-04418948]
- effect on SW033291 induced increase of homing [7]: partially blocked

Compound: CCCCC(C)(C)[C@H](O)/C=C/[C@H]1[C@H](O)CC(=O)[C@@H]1C/C=C\CCCC(=O)O [dmPGE2, 16,16-dimethyl PGE2]
- increase in number of bone marrow derived colonies relative to SW033291 [12]: slightly greater increase
